Experimental data as given in patent US8877748B2, “Heterocyclic fused anthraquinone derivatives, manufacturing method and pharmaceutical composition using thereof” (National Defense Medical Center, priority 2012, dated 2014).

Legend:
[1] = system: PC-3 prostate cancer cell line; test: SRB assay cell viability, PC-3 prostate cancer cell line; type: cell-based, human; settings: PC-3 prostate cancer cell line, Table II prints no unit, μM printed, read-out: SRB assay: 50% inhibition of cancer cell proliferation of sample concentration (IC50) of PC-3 prostate cancer cell line
HL-60, TB = test: NCI one-dose screening, leukemia HL-60, TB; type: cell-based, human; settings: 10 μM
MOLT-4 = test: NCI one-dose screening, leukemia MOLT-4; type: cell-based, human; settings: 10 μM
SR = test: NCI one-dose screening, leukemia SR; type: cell-based, human; settings: 10 μM
PRMI-8226 cell line = test: NCI one-dose screening, leukemia PRMI-8226; type: cell-based, human; settings: 10 μM
K562cell line = test: NCI one-dose screening, leukemia K562; type: cell-based, human; settings: 10 μM
EKVX = test: NCI one-dose screening, non-small cell lung cancer EKVX; type: cell-based, human; settings: 10 μM
HOP-62 = test: NCI one-dose screening, non-small cell lung cancer HOP-62; type: cell-based, human; settings: 10 μM
HOP-92 = test: NCI one-dose screening, non-small cell lung cancer HOP-92; type: cell-based, human; settings: 10 μM
NCI-H226 = test: NCI one-dose screening, non-small cell lung cancer NCI-H226; type: cell-based, human; settings: 10 μM
NCI-H23 = test: NCI one-dose screening, non-small cell lung cancer NCI-H23; type: cell-based, human; settings: 10 μM
NCI-H460 = test: NCI one-dose screening, non-small cell lung cancer NCI-H460; type: cell-based, human; settings: 10 μM
NCI-H522 = test: NCI one-dose screening, non-small cell lung cancer NCI-H522; type: cell-based, human; settings: 10 μM
A549/ATCC = test: NCI one-dose screening, non-small cell lung cancer A549/ATCC; type: cell-based, human; settings: 10 μM
COLO 205 = test: NCI one-dose screening, colon cancer COLO 205; type: cell-based, human; settings: 10 μM
HCC-2998 = test: NCI one-dose screening, colon cancer HCC-2998; type: cell-based, human; settings: 10 μM
HCT-116 = test: NCI one-dose screening, colon cancer HCT-116; type: cell-based, human; settings: 10 μM
HCT-15 = test: NCI one-dose screening, colon cancer HCT-15; type: cell-based, human; settings: 10 μM
KM12 = test: NCI one-dose screening, colon cancer KM12; type: cell-based, human; settings: 10 μM
HT29 = test: NCI one-dose screening, colon cancer HT29; type: cell-based, human; settings: 10 μM
SF-268 = test: NCI one-dose screening, CNS cancer SF-268; type: cell-based, human; settings: 10 μM
SF-295 = test: NCI one-dose screening, CNS cancer SF-295; type: cell-based, human; settings: 10 μM
SF-539 = test: NCI one-dose screening, CNS cancer SF-539; type: cell-based, human; settings: 10 μM
SNB-19 = test: NCI one-dose screening, CNS cancer SNB-19; type: cell-based, human; settings: 10 μM
SNB-75 = test: NCI one-dose screening, CNS cancer SNB-75; type: cell-based, human; settings: 10 μM
U251 = test: NCI one-dose screening, CNS cancer U251; type: cell-based, human; settings: 10 μM
LOX IMVI = test: NCI one-dose screening, melanoma LOX IMVI; type: cell-based, human; settings: 10 μM
MALME-3M = test: NCI one-dose screening, melanoma MALME-3M; type: cell-based, human; settings: 10 μM
M14 = test: NCI one-dose screening, melanoma M14; type: cell-based, human; settings: 10 μM
UACC-62 = test: NCI one-dose screening, melanoma UACC-62; type: cell-based, human; settings: 10 μM
UACC-257 = test: NCI one-dose screening, melanoma UACC-257; type: cell-based, human; settings: 10 μM
SK-MEL-2 = test: NCI one-dose screening, melanoma SK-MEL-2; type: cell-based, human; settings: 10 μM
SK-MEL-28 = test: NCI one-dose screening, melanoma SK-MEL-28; type: cell-based, human; settings: 10 μM
SK-MEL-5 = test: NCI one-dose screening, melanoma SK-MEL-5; type: cell-based, human; settings: 10 μM
IGROV1 = test: NCI one-dose screening, ovarian cancer IGROV1; type: cell-based, human; settings: 10 μM
OVCAR-3 = test: NCI one-dose screening, ovarian cancer OVCAR-3; type: cell-based, human; settings: 10 μM
OVCAR-5 = test: NCI one-dose screening, ovarian cancer OVCAR-5; type: cell-based, human; settings: 10 μM
OVCAR-8 = test: NCI one-dose screening, ovarian cancer OVCAR-8; type: cell-based, human; settings: 10 μM
SK-OV-3 = test: NCI one-dose screening, ovarian cancer SK-OV-3; type: cell-based, human; settings: 10 μM
786-O = test: NCI one-dose screening, renal cancer 786-O; type: cell-based, human; settings: 10 μM
CAKI-1 = test: NCI one-dose screening, renal cancer CAKI-1; type: cell-based, human; settings: 10 μM
[2] = NCI one-dose screening, renal cancer A489; type: cell-based, human; settings: 10 μM
ACHN = test: NCI one-dose screening, renal cancer ACHN; type: cell-based, human; settings: 10 μM
SN12C = test: NCI one-dose screening, renal cancer SN12C; type: cell-based, human; settings: 10 μM
TK-10 = test: NCI one-dose screening, renal cancer TK-10; type: cell-based, human; settings: 10 μM
UO-31 = test: NCI one-dose screening, renal cancer UO-31; type: cell-based, human; settings: 10 μM
RXF, 393 = test: NCI one-dose screening, renal cancer RXF, 393; type: cell-based, human; settings: 10 μM
DU145 = test: NCI one-dose screening, prostate cancer DU145; type: cell-based, human; settings: 10 μM
PC-3 = test: NCI one-dose screening, prostate cancer PC-3; type: cell-based, human; settings: 10 μM
MCF7 = test: NCI one-dose screening, breast cancer MCF7; type: cell-based, human; settings: 10 μM
HS 578-T = test: NCI one-dose screening, breast cancer HS 578-T; type: cell-based, human; settings: 10 μM; Breast cancer
MDA-MB-231/ATCC = test: NCI one-dose screening, breast cancer MDA-MB-231/ATCC; type: cell-based, human; settings: 10 μM
MDA-MB-468 = test: NCI one-dose screening, breast cancer MDA-MB-468; type: cell-based, human; settings: 10 μM
NCl/ADR-RES = test: NCI one-dose screening, breast cancer NCl/ADR-RES; type: cell-based, human; settings: 10 μM; listed under Ovarian cancer
BT-549 = test: NCI one-dose screening, breast cancer BT-549; type: cell-based, human; settings: 10 μM
T-47D = test: NCI one-dose screening, breast cancer T-47D; type: cell-based, human; settings: 10 μM
MDA, -MB-435 = test: NCI one-dose screening, breast cancer MDA, -MB-435; type: cell-based, human; settings: 10 μM; listed under Melanoma
human tumor cell lines = test: NCI one-dose screening, Mean / Delta / Range of growth percent over all tested cell lines; type: cell-based; settings: 10 μM

4-(2,5-dichloro-phenyl thio)anthra[2,1-c] [1,2,5]thiadiazol oxazole-6,11-dione [C35]
IC50 [1]: > 15 µM
Growth Percent HL-60(TB) (HL-60, TB): 72.72%
Growth Percent MOLT-4 (MOLT-4): 1.27%
Growth Percent SR (SR): 41.15%
Growth Percent RPMI-8226 (PRMI-8226 cell line): 77.16%
Growth Percent K562 (K562cell line): 47.80%
Growth Percent EKVX (EKVX): 109.03%
Growth Percent HOP-62 (HOP-62): 63.18%
Growth Percent HOP-92 (HOP-92): 65.12%
Growth Percent NCI-H226 (NCI-H226): 112.00%
Growth Percent NCI-H23 (NCI-H23): 74.59%
Growth Percent NCI-H460 (NCI-H460): 100.98%
Growth Percent NCI-H522 (NCI-H522): 91.29%
Growth Percent A549/ATCC (A549/ATCC): 102.75%
Growth Percent COLO 205 (COLO 205): 109.65%
Growth Percent HCC-2998 (HCC-2998): 109.37%
Growth Percent HCT-116 (HCT-116): 81.94%
Growth Percent HCT-15 (HCT-15): 92.85%
Growth Percent KM12 (KM12): 101.18%
Growth Percent HT29 (HT29): 106.27%
Growth Percent SF-268 (SF-268): 82.95%
Growth Percent SF-295 (SF-295): 78.93%
Growth Percent SF-539 (SF-539): 88.74%
Growth Percent SNB-19 (SNB-19): 84.39%
Growth Percent SNB-75 (SNB-75): 47.00%
Growth Percent U251 (U251): 63.57%
Growth Percent LOX IMVI (LOX IMVI): 73.05%
Growth Percent MALME-3M (MALME-3M): 94.30%
Growth Percent M14 (M14): 98.95%
Growth Percent UACC-62 (UACC-62): 94.09%
Growth Percent UACC-257 (UACC-257): 119.38%
Growth Percent SK-MEL-2 (SK-MEL-2): 101.38%
Growth Percent SK-MEL-28 (SK-MEL-28): 122.69%
Growth Percent SK-MEL-5 (SK-MEL-5): 108.82%
Growth Percent IGROV1 (IGROV1): 78.13%
Growth Percent OVCAR-3 (OVCAR-3): 99.41%
Growth Percent OVCAR-5 (OVCAR-5): 108.82%
Growth Percent OVCAR-8 (OVCAR-8): 85.13%
Growth Percent SK-OV-3 (SK-OV-3): 84.09%
Growth Percent 786-0 (786-O): 67.49%
Growth Percent CAKI-1 (CAKI-1): 108.19%
Growth Percent A498 [2]: 87.70%
Growth Percent ACHN (ACHN): 88.50%
Growth Percent SN12C (SN12C): 96.65%
Growth Percent TK-10 (TK-10): 111.76%
Growth Percent UO-31 (UO-31): 91.54%
Growth Percent RXF 393 (RXF, 393): 91.47%
Growth Percent DU145 (DU145): 102.44%
Growth Percent PC-3 (PC-3): 80.59%
Growth Percent MCF7 (MCF7): 85.16%
Growth Percent HS 578T (HS 578-T): 72.51%
Growth Percent MDA-MB-231/ATCC (MDA-MB-231/ATCC): 82.44%
Growth Percent MDA-MB-468 (MDA-MB-468): 90.73%
Growth Percent NCI/ADR-RES (NCl/ADR-RES): 83.13%
Growth Percent BT-549 (BT-549): 79.66%
Growth Percent T-47D (T-47D): 63.44%
Growth Percent MDA-MB-435 (MDA, -MB-435): 105.64%
Growth Percent Delta (human tumor cell lines; delta over all cell lines): 85.86%
Growth Percent Mean (human tumor cell lines; mean over all cell lines): 87.13%
Growth Percent Range (human tumor cell lines; range over all cell lines): 121.42%
